Drawing on PubChem BioAssay AID179 (DTP/NCI, 2004), this text covers EC50, IC50 and outcome for 66 compounds.

Each structure is given as a SMILES string. The source made the active and inactive calls.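 How the source made its calls: active means compounds giving half or more protection of infected cells from virus-caused growth loss, again on retest; inactive means the rest.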 Where a SMILES comes first, the peptide text is derived from it. [ ]: non-standard residue; d: D form. The star is where a group is joined. ξ: configuration not given here. Bz = O=C(c1ccccc1)*; Bn = c1ccc(C*)cc1; ξC = NC(CS)C(=O)O

Broadly, the EC50 is the midpoint of the concentration-response curve. What is called IC50 is the concentration that gives 50% inhibition. High values mean weaker potency, low ones greater potency.

This assay concerns CEM cells HIV-1 protection, formazan growth assay. The experiment in a line: NCI AIDS Antiviral Assay. As to conditions: for IC50: measured here: growth of uninfected CEM cells. In outline: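 Steps: treat uninfected and HIV-1-infected human CEM cells at five drug levels; quantify growth by soluble formazan; retest any compound reaching 50% protection; classify actives from the retest.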

In the case of `CCCC(=O)Nc1ccc(O)c2c1C1CCCCCC21` (stereo unspecified), the EC50 is above 200 µM and the IC50 came to 102 µM. Take `COC(=O)C(Cc1ccc(N(C)C)cc1)(NC(=O)c1ccccc1)P(=O)(OC)OC` (stereo unspecified): the EC50 is above 417 µM and the IC50 turned out to be 398 µM. On the same counts, the results for `CN(C)CCSc1cccc(-c2cc(-c3cccc(SCCN(C)C)c3)ncn2)c1` are above 21.9 µM and 8.71 µM.

Consider `CN(C)c1ccc(/C=c2\sc3nc4ccccc4n3c2=O)cc1`, for which the EC50 was above 0.851 µM and the IC50 was above 0.851 µM. For `COc1ccc(-c2oc3cc(O)cc(O)c3c(=O)c2OC)cc1`, the result was inactive. For `Cc1ccc(S(=O)(=O)Nc2nc3ccccc3c(=O)n2C2CCCCC2)cc1`, the EC50 is above 200 µM and the IC50 was above 200 µM.

Take `CC1(C)OCC2OC3(CO)NP(=O)(N(CCCl)CCCl)OC3C2O1` (stereo unspecified): the outcome was inactive. As for `COc1ccc(C2C(Cl)C(=O)N2NC(=O)c2ccc(N)cc2)cc1` (stereo unspecified), the EC50 is above 200 µM and the IC50 is above 200 µM. For the compound `O=C(O)c1c(O)ccc(O)c1C(=O)Nc1ccc(/C=C/c2ccc(NC(=O)c3c(O)ccc(O)c3C(=O)O)cc2S(=O)(=O)O)c(S(=O)(=O)O)c1`, the EC50 is 17.8 µM and the IC50 was above 200 µM. As for `CC1=NN(c2nc(N)nc(-c3sccc3N)n2)C(C)(C)C1`, the EC50 was above 200 µM and the IC50 is 77.6 µM.

For the compound `CN(C)c1ccc(/C=C(\NC(=O)c2ccccc2)c2nn(C)c(=O)o2)cc1`, the EC50 was above 100 µM and the IC50 was above 100 µM. As to `O=C(CNC(=O)c1ccccc1)NC(CSCc1ccccc1)C(=O)O` (stereo unspecified) (Bz-Gly-[ξC](Bn)-OH), the EC50 is above 676 µM and the IC50 was 550 µM. `Oc1c(Br)cc(Br)cc1/C=C/NC(=S)NC1CC2CC1C1C=CCC21` (stereo unspecified): the EC50 was above 200 µM and the IC50 amounted to 3.02 µM. For `O=C(OCC1OC(n2nc(Cn3nnc(-c4cccnc4)n3)n(-c3cccc4ccccc34)c2=S)C(OC(=O)c2ccccc2)C1OC(=O)c1ccccc1)c1ccccc1` (stereo unspecified), in that order: above 100 µM and above 100 µM. For `Cc1ccc(NC(=O)CCc2cc(C(C)(C)C)nc(=S)[nH]2)cc1C`, in that order: above 724 µM and 398 µM. For `Cn1c2ccc([N+](=O)[O-])cc2c(=O)c2c(O)cc(O)cc21`, in that order: above 200 µM and 19.1 µM. As to `CC(=O)Oc1ccc(-c2cc3ccccc3oc2=O)cc1OC(C)=O`, the EC50 was above 200 µM and the IC50 was determined as 8.32 µM.

In the case of `CCOC(=O)CC[P+](c1ccccc1)(c1ccccc1)c1ccccc1`, the EC50 is above 200 µM and the IC50 came out at 21.4 µM. Regarding `O=C(Nc1c(Cl)cc([N+](=O)[O-])cc1Cl)C(=O)C(C(=O)c1ccncc1)C1OC(=O)c2ccccc21` (stereo unspecified), the result was inactive.

As for `COc1ccc(-n2c(=O)c3[nH]c(=S)[nH]c3n(-c3ccc(OC)cc3)c2=S)cc1`, the EC50 is above 200 µM and the IC50 is above 200 µM.

For the compound `COC(=O)C1=NOC2C(=O)N(c3ccccc3)C(=O)C12` (stereo unspecified), the EC50 was above 200 µM and the IC50 was above 200 µM. For `NC(=O)c1nc(-c2ccc(Cl)c(Cl)c2)nc2ccccc12`, the result was inactive. As to `C/C(=N\NC(=S)N1CCCCC1)c1cccc(C)n1`, the EC50 is above 0.2 µM and the IC50 was 0.00617 µM. For `CCCNC(=O)C1C(=O)C(=O)N(CCC)C1=O` (stereo unspecified), the result was inactive. Turning to `COc1cc(CNCc2cc(OC)c(OC)c(OC)c2)cc(OC)c1OC`, the EC50 is above 200 µM and the IC50 is above 200 µM. Turning to `COC(=O)c1cc(C(=O)OC)c(CC(=O)C(=O)Nc2c(C(C)C)cccc2C(C)C)nc1CC(=O)C(=O)Nc1c(C(C)C)cccc1C(C)C`, the EC50 is above 200 µM and the IC50 is above 200 µM. For `CC(=O)OCC1OC(Nn2c(=O)[nH]c3ccccc3c2=O)C(OC(C)=O)C(OC(C)=O)C1OC(C)=O` (stereo unspecified), the EC50 was above 158 µM and the IC50 is 117 µM. As for `CN(C)c1cc(CN(CCSS(=O)c2ccccc2[N+](=O)[O-])S(=O)c2ccccc2[N+](=O)[O-])nc(CN(CCSS(=O)c2ccccc2[N+](=O)[O-])S(=O)c2ccccc2[N+](=O)[O-])c1` (stereo unspecified), the EC50 is above 100 µM and the IC50 is above 100 µM. As for `Cc1ccc(NC(=O)/C(Cl)=C(/Cl)C(=O)O)cc1`, the result was inactive. Same read-out and setting: the same measure for `O=C(O)COc1ccc2c3c1C(=O)CCC3CO2` (stereo unspecified): “inactive”; for `NCC1OC(OC2C(CO)OC(OC3C(O)C(N)CC(N)C3OC3OC(CO)C(O)C(O)C3N)C2O)C(N)C(O)C1O` (stereo unspecified): “inactive”.

On to `C[Si](C)(C)C#C/C(CO)=C(/C#C[Si](C)(C)C)CO`, for which the EC50 was above 33.9 µM and the IC50 was above 33.9 µM. For the compound `COc1cc(C(=O)C/C(CCC(=O)Nc2ccc(Cl)cc2Cl)=N/Nc2nnc(C)n2N)ccc1O`, the EC50 was above 50.1 µM and the IC50 is above 50.1 µM. For the compound `CCCCC/C(=N\c1nc[nH]c1C(N)=O)OCC`, the EC50 is above 200 µM and the IC50 is above 200 µM. As for `O=C1CC2C(=O)C1C(C(=O)O)C2C(=O)O` (stereo unspecified), the EC50 is above 1170 µM and the half-inhibitory concentration (IC50) is above 1170 µM. With `c1ccc2c(c1)OCOc1ccccc1OCO2`, the outcome was inactive. Still for that read-out and setting: the same measure for `O=C(O)c1[nH]c2c(=O)[nH]c(=O)[nH]c2c1Br`: “inactive”. As to `O=C1C=CC(=O)N1n1c(Cc2ccccc2)n[nH]c1=O`, the EC50 is above 200 µM and the IC50 is above 200 µM.

As for `COP(=N[Si](C)(C)C)(OC)OC`, the EC50 was above 200 µM and the IC50 is above 200 µM. As to `CCN(CC)C1Oc2cc3c(cc2C(c2cccc(OC)c2O)C1C)OCO3` (stereo unspecified), the EC50 was above 200 µM and the IC50 was found to be 3.8 µM. For `CCCN(CCC)C(=S)Sc1nc(C)nc(N2CCN(c3nc(C)nc(SC(=S)N(CCC)CCC)c3[N+](=O)[O-])CC2)c1[N+](=O)[O-]`, in that order: above 200 µM and 2.04 µM. As to `O=[N+]([O-])c1ccc2ncccc2c1CCc1c([N+](=O)[O-])ccc2ncccc12`, the result was inactive. Turning to `CCC[CH2][Sn]([CH2]CCC)([O]C(=O)c1cccc(F)c1F)[O][Sn]([CH2]CCC)([CH2]CCC)[O]C(=O)c1cccc(F)c1F`, the EC50 is above 6.61 µM and the IC50 was found to be 4.79 µM. For `CCOC(=O)N1CCN(C=S)CC1`, in that order: above 1230 µM and above 1230 µM. For `CN(c1ccccc1)c1cc2ccccc2nn1`, in that order: above 200 µM and 93.3 µM.

In the case of `Oc1[nH]c2ccccc2c1N=NC(=S)NCc1ccccn1`, the EC50 is above 2 µM and the IC50 came to 0.0295 µM. On the same counts, the results for `COc1cc2cc(C(=O)N3CC(CCl)c4ccc(NCCN)cc43)[nH]c2c(OC)c1OC` (stereo unspecified) are above 2 µM and 0.813 µM. With `CC1C(=O)OC2CCC3(C)C(=O)OC4OC5(c6ccoc6)CC1(O)C2(C)C43O5` (stereo unspecified), the EC50 was above 200 µM and the IC50 is above 200 µM. As for `O=S(=O)(O)c1cc(N/N=C/c2cc(S(=O)(=O)O)c3cccnc3c2O)ccc1/C=C/c1ccc(N/N=C/c2cc(S(=O)(=O)O)c3cccnc3c2O)cc1S(=O)(=O)O`, the EC50 is 13.5 µM and the IC50 came to 129 µM. For `CC(=O)NC(CS)C(=O)NC(CO)C(=O)NC(CO)C(=O)NC(Cc1c[nH]c2ccccc12)C(=O)N1CCCC1C(=O)NC(CO)C(=O)NC(Cc1c[nH]c2ccccc12)C(=O)NC(Cc1c[nH]cn1)C(=O)NC(CO)C(=O)NC(Cc1c[nH]c2ccccc12)C(=O)NCC(=O)NCC(=O)NC(CC(=O)O)C(=O)NC(CCC(N)=O)C(=O)NC(CCCCN)C(=O)NC(Cc1ccccc1)C(=O)NC(CCCNC(=N)N)C(=O)NC(CCCCN)C(N)=O` (stereo unspecified) (Ac-CSSWPSWHSWGGDQKFRK-NH2; configuration not given here), in that order: above 20 µM and above 20 µM. Take `COC(=O)C1(Cc2ccccc2C)Cc2ccc(C)cc2C1=O` (stereo unspecified): the EC50 is above 200 µM and the IC50 was found to be 57.5 µM. For `CCOC(=O)c1nc2ccccc2nc1Oc1ccc(F)cc1`, in that order: above 200 µM and above 200 µM. For `CCOC(=O)NC(Nc1ccc([N+](=O)[O-])cc1)(C(F)(F)F)C(F)(F)F`, in that order: above 200 µM and 66.1 µM. On the same counts, the results for `Cc1cc2c(O)c(c1)CN(Cc1ccccc1)Cc1cc(C)cc(c1O)CN(Cc1ccccc1)Cc1cc(C)cc(c1O)CN(Cc1ccccc1)C2` are above 50.1 µM and above 50.1 µM. In the case of `C[C@]12CCC3C(CC[C@H]4C/C(=C/C#N)CC[C@]34C)C1CC/C2=C\C#N` (stereo partly specified), the EC50 is above 100 µM and the IC50 is 25.7 µM.

As to `O=S(=O)(Nc1nnc2ccc3ccccc3n12)c1ccc(F)cc1S`, the EC50 is above 200 µM and the IC50 stood at 110 µM. Regarding `CC(=O)O/N=C/c1ncccc1OC(C)=O`, the EC50 was above 1120 µM and the IC50 was above 1120 µM.

Turning to `CN1CCC2(CC1)N=C1CCN(C)CC1S2` (stereo unspecified), the EC50 is above 457 µM and the IC50 is 87.1 µM. On the same counts, the results for `O=c1[nH]c(=S)c2cncnc2n1C1OC(CO)C(O)C1O` (stereo unspecified) are above 200 µM and above 200 µM. On the same counts, the results for `CCCC/S(C)=N/S(=O)(=O)c1ccc(C)cc1` (stereo unspecified) are above 200 µM and above 200 µM.

For the compound `O=C1C=C(Nc2ccc(S(=O)(=O)Nc3ncccn3)cc2)c2ccccc2C1=O`, the EC50 was above 447 µM and the IC50 was determined as 67.6 µM. On the same counts, the results for `O=C(NC(CSSCC(NC(=O)c1cnc2ccccc2n1)C(=O)O)C(=O)O)c1cnc2ccccc2n1` (stereo unspecified) are above 200 µM and above 200 µM. On the same counts, the results for `O=C1O[C@H](COC(=O)c2ccccc2)[C@@H](OC(=O)c2ccccc2)C=C1OC(=O)c1ccccc1` are above 200 µM and 20.4 µM. Regarding `CC(=O)NC1C(OCc2ccccc2)OC(CO)C(O)C1OCC(=O)NC(C)C(=O)NC(CCC(=O)NCCCCNc1ccc([N+](=O)[O-])c2[nH]c3ccccc3c(=O)c12)C(N)=O` (stereo unspecified), the EC50 was 81.3 µM and the IC50 was above 100 µM. On the same counts, the results for `O=c1cc2ccccc2nn1Cc1cccc(Cl)c1` are above 115 µM and 102 µM.

For the compound `Cn1c2c(c3ccccc31)CCN(CCCCN1CCN(c3ccccc3)CC1)C2=O`, the EC50 is above 30.9 µM and the IC50 was above 30.9 µM.
